What was measured:
Assay in all cases: relative viability (nuclei count vs DMSO), 5 days (fraction); higher = more cells survive
[1] = compound: C1=CC2=NC=CN=C2C=C1/C=C/3\C(=O)NC(=O)S3 + C[C@@H](Oc1cc(-c2cnn(C3CCNCC3)c2)cnc1N)c1c(Cl)ccc(F)c1Cl [Crizotinib] (partner 1 µM)
Outline: (§1)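 Five library-drug doses in √10 steps were combined with a fixed anchor-drug dose, or a single drug was given alone, by pin tool to lung cancer cell lines in 1536-well plates the day after seeding. Nuclei were stained and counted after 5 days. Relative viability is the nuclei count in treated wells over that in vehicle wells, taken as the median of duplicate plates.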

[2] = compound: CCN1CCN(c2ccc(Nc3cc(N(C)C(=O)Nc4c(Cl)c(OC)cc(OC)c4Cl)ncn3)cc2)CC1 [BGJ398] + CC(C)C[C@H](NC(=O)[C@H](Cc1ccccc1)NC(=O)c1cnccn1)B(O)O [Bortezomib] (partner 0.002 µM)
Outline: as §1

[3] = compound: C1=CC2=NC=CN=C2C=C1/C=C/3\C(=O)NC(=O)S3 + CC(=O)Nc1cccc(-n2c(=O)n(C3CC3)c(=O)c3c(Nc4ccc(I)cc4F)n(C)c(=O)c(C)c32)c1 [Trametinib] (partner 0.02 µM)
Outline: as §1

[4] = compound: CCN1CCN(c2ccc(Nc3cc(N(C)C(=O)Nc4c(Cl)c(OC)cc(OC)c4Cl)ncn3)cc2)CC1 [BGJ398] + Nc1nc2[nH]cc(CCc3ccc(C(=O)N[C@@H](CCC(=O)O)C(=O)O)cc3)c2c(=O)[nH]1 [Pemetrexed] (partner 0.2 µM)
Outline: as §1

UMC-11
relative viability ([1]; first compound 0.02 µM): 0.627
relative viability ([1]; first compound 0.06325 µM): 0.572
relative viability ([1]; first compound 0.2 µM): 0.557
relative viability ([1]; first compound 0.6325 µM): 0.603
relative viability ([1]; first compound 2 µM): 0.722
relative viability ([2]; first compound 0.01 µM): 0.759
relative viability ([2]; first compound 0.03162 µM): 0.632
relative viability ([2]; first compound 0.1 µM): 0.706
relative viability ([2]; first compound 0.3162 µM): 0.661
relative viability ([2]; first compound 1 µM): 0.475
relative viability ([3]; first compound 0.02 µM): 0.697
relative viability ([3]; first compound 0.06325 µM): 0.792
relative viability ([3]; first compound 0.2 µM): 0.75
relative viability ([3]; first compound 0.6325 µM): 0.663
relative viability ([3]; first compound 2 µM): 0.81
relative viability ([4]; first compound 0.01 µM): 0.799
relative viability ([4]; first compound 0.03162 µM): 0.747
relative viability ([4]; first compound 0.1 µM): 0.854
relative viability ([4]; first compound 0.3162 µM): 0.814
relative viability ([4]; first compound 1 µM): 0.758

Reference: the supplement of paper PMC10307832
